The values below come from PMC8199339, “Propellanes as Rigid Scaffolds for the Stereodefined Attachment of σ-Pharmacophoric Structural Elements to Achieve σ Affinity” (International Journal of Molecular Sciences, 2021).

Data set [1] addresses T1, σ1 receptor (Cavia porcellus, UniProt Q60492).
T1 construct: thawed membrane preparation of guinea pig brain; tissue Harlan-Winkelmann, Borchen, Germany (animal organs); host or cells: guinea pig brain membrane homogenate
The data set is described as follows: σ1 receptor binding assay, radioligand [3H]-(+)-pentazocine, guinea pig brain membrane preparation. To be noted: for inhibition at 1 µM / inhibition of the radioligand binding, σ1: test compound concentration of 1 µM.

In data set [2] the target is T2, σ2 receptor (Rattus norvegicus, UniProt Q5U3Y7).
T2 construct: The thawed rat liver membrane preparation; tissue Harlan-Winkelmann, Borchen, Germany (animal organs); host or cells: rat liver membrane homogenate
T2 sequence (Q5U3Y7 1-176): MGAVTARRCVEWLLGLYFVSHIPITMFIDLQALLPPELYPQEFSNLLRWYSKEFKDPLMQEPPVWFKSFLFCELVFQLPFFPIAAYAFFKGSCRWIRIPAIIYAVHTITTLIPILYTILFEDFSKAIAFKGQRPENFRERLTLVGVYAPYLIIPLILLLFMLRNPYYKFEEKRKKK
The data set can be described thus: σ2 receptor binding assay, radioligand [3H]di-o-tolylguanidine, rat liver membrane preparation. The conditions noted are these: for inhibition at 1 µM / inhibition of the radioligand binding, σ2: test compound concentration of 1 µM.

Data set [3] addresses T1, σ1 receptor. To be noted: cited from earlier work.
Data set [4] has as its target T2, σ2 receptor. To be noted: test compound concentration of 1 µM; already reported; 1 µM; cited from earlier work.
For data set [5], the target named is σ1 receptor. To be noted: cited from earlier work; for Ki: Figure 2.
Data set [6] addresses σ2 receptor. The conditions noted are these: cited from earlier work; for Ki: Figure 2.
Where [7] appears, read: [3H]-(+)-pentazocine, guinea pig brain, mean of three experiments (± SEM), values without SEM mean of two, read-out: Ki (nM) σ1.

The structures appear in SMILES notation. Where two headings read alike, the source gives them in different places.

In general, inhibition refers to how much of the control response was suppressed. High values mean a response far below the control, low ones a response near the control. In general, melting point refers to the temperature of the solid-liquid transition. Broadly, the Ki is a measure of affinity in units of concentration, obtained from inhibition or displacement.

T1 sequence (Q60492 whole entry): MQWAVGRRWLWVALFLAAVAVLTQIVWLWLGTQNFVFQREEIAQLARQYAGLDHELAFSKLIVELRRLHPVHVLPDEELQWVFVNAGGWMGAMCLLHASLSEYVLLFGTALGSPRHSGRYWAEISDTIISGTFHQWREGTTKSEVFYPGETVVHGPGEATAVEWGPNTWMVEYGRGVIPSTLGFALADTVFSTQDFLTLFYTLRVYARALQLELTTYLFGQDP

In turn, `O=C(Nc1ccc(F)c(F)c1)NC1CC23CCCCC2(CC(O)C3)C1` (mixture of isomers) [8-syn-26, 1-(3,4-Difluorophenyl)-3-(8-syn-11-syn- and 8-syn-11-anti-11-hydroxy[4.3.3]-propellan-8-yl)urea] returned a melting point of 171 to 178 °C. Further, the inhibition at 1 µM in data set [1] was determined as 10%. In data set [2], the inhibition at 1 µM turned out to be 0%.

In the case of `OC1CC23CCCCC2(C1)CC(NCc1ccccc1)C3` (mixture of isomers) [11-anti-13, [(8-anti-11-anti and 8-anti-11-syn)-11-(Benzylamino)[4.3.3]propellan-8-ol], the melting point is 121 to 123 °C. In data set [1], this compound showed an inhibition at 1 µM of 29%. Moreover, in data set [2] (read-out: Ki (nM) σ2), the Ki turned out to be 1070 nM.

Take `COc1ccc(C)cc1NC(=O)OC1CC23CCCCC2(CC(NCCCN)C3)C1` (stereo not drawn) [8-anti-4r, [(8-anti-11-anti and 8-anti-11-syn)-11-[(3-Aminopropyl)amino][4.3.3]propellan-8-yl] N-(2-methoxy-5-methylphenyl)carbamate]: the melting point lay within 74 to 76 °C. Moreover, the inhibition at 1 µM in data set [1] was 16%. Besides, in data set [2], the inhibition at 1 µM was 0%.

The compound `COc1ccc(C)cc1NC(=O)OC1CC23CCCCC2(CC(NCC(C)C)C3)C1` (stereo not drawn) [8-anti-4u, [(8-anti-11-anti and 8-anti-11-syn)-11-(Isobutylamino)[4.3.3]propellan-8-yl] N-(2-methoxy-5-methylphenyl)carbamate] gave an inhibition at 1 µM in data set [1] of 5%. The Ki in data set [2] (read-out: Ki (nM) σ2) came to 854 nM.

For the compound `COc1ccc(C)cc1NC(=O)OC1CC23CCCCC2(CC(NCCc2c[nH]c4ccccc24)C3)C1` (stereo not drawn) [8-syn-4k, [(8-syn-11-syn and 8-syn-11-anti)-11-[(2-(Indol-3-yl)ethylamino][4.3.3]propellan-8-yl] N-(2-methoxy-5-methylphenyl)carbamate], the Ki in data set [1] (setting [7]) was 983 nM; in data set [2] (read-out: Ki (nM) σ2) it was 1400 nM.

For `O=C(Nc1ccccc1)NC1CC23CCCCC2(CCC3)C1` (stereo not drawn) [23a, 1 -Phenyl-3-(syn- and anti-[4.3.3]propellan-8-yl)urea], the melting point fell in the range of 134 to 138 °C. In data set [1], testing at 1 µM gave an inhibition of 0%. In data set [2], this compound displayed an inhibition at 1 µM of 15%.

`O=C(NC1CCCCC1)NC1CC23CCCCC2(CCC3)C1` (stereo not drawn) [23b, 1 -Cyclohexyl-3-(syn- and anti-[4.3.3]propellan-8-yl)urea] registered a melting point of 187 to 193 °C. This compound returned an inhibition at 1 µM in data set [1] of 0%. Further, the inhibition at 1 µM in data set [2] came out at 0%.

`COc1ccc(C)cc1NC(=O)NC1CC23CCCCC2(CCC3)C1` (stereo not drawn) [23c, 1-(2-Methoxy-5-methylphenyl)-3-(syn- and anti-[4.3.3]propellan-8-yl)urea] came in with a melting point of 215 to 220 °C. In data set [1], this compound yielded an inhibition at 1 µM of 0%. This compound also came in with an inhibition at 1 µM in data set [2] of 0%.

In the case of `O=C(Nc1ccc(F)c(F)c1)NC1CC23CCCCC2(CCC3)C1` (stereo not drawn) [23d, 1-(3,4-Difluorophenyl)-3-(syn- and anti-[4.3.3]propellan-8-yl)urea], the melting point lay within 168 to 175 °C. In data set [1], this compound had an inhibition at 1 µM of 0%. In data set [2], at 1 µM the inhibition was 0%.

For the compound `COc1ccc(C)cc1NC(=O)N(Cc1ccccc1)C1CC23CCCCC2(CC(O)C3)C1` (stereo not drawn) [anti,anti-22, 1 -Benzyl-1-{(8-anti,11-anti)-11-hydroxy[4.3.3]propellan-8-yl}-3-(2-methoxy-5-methylphenyl)urea], in data set [1], the “inhibition of the radioligand binding, σ1” value (“inhibition … σ1” for short) came out at 0%. The “inhibition of the radioligand binding, σ2” value (“inhibition … σ2” for short) in data set [2] (1 µM) is on record as 0%.

`O=C(Nc1ccc(F)c(F)c1)NC1CC23CCCCC2(CC(O)C3)C1` (stereo not drawn) [anti,anti-26, 1-(3,4-Difluorophenyl)-3-(8-anti-11-anti-11-hydroxy[4.3.3]propellan-8-yl)urea]: the inhibition at 1 µM in data set [1] and in data set [2] was 0% each time.

Regarding `COc1ccc(C)cc1NC(=O)N(Cc1ccccc1)C1CC23CCCCC2(CC(O)C3)C1` (stereo not drawn) [anti,syn-22, 1-benzyl-1-{(8-anti,11-syn)-11-hydroxy[4.3.3]propellan-8-yl}-3-(2-methoxy-5-methylphenyl)urea], the inhibition at 1 µM in data set [1] amounted to 0%. Further, in data set [2] (1 µM), the “inhibition … σ2” value was 17%.

Take `COc1ccc(C)cc1NC(=O)OC1CC23CCCCC2(C1)CN(Cc1ccccc1)CC3` (stereo not drawn) [anti-5]: the Ki in data set [3] (propellanamines 4a and azapropellanes 5, already reported) is 82 ± 54 nM. The “inhibition … σ2” value in data set [4] was 8%.

As for `c1ccc(CNC2CC34CCCCC3(C2)CC2(C4)OCCO2)cc1` (stereo not drawn) [anti-14, (11′-anti)-Spiro-([1,3]dioxolane-2,8′-(N-benzyl[4.3.3]propellan))-11′-amine], in data set [1] (setting [7]), the Ki came to 1400 nM. In data set [2] (1 µM), the “inhibition … σ2” value is recorded as 0%.

With `COc1ccc(C)cc1NC(=O)N(Cc1ccccc1)C1CC23CCCCC2(CC(=O)C3)C1` (stereo not drawn) [anti-21, 1 -Benzyl-3-(2-methoxy-5-methylphenyl)-1-(anti-11-oxo-[4.3.3]propellan-8-yl)urea], the melting point was in the range of 133 to 136 °C. Also, the “inhibition … σ1” value in data set [1] (1 µM) stood at 5%. Further, the “inhibition … σ2” value in data set [2] (1 µM) is 12%.

For the compound `O=C1CC23CCCCC2(C1)CC(NC(=O)Nc1ccc(F)c(F)c1)C3` (stereo not drawn) [anti-25, 1-(3,4-Difluorophenyl)-3-(8-anti-11-oxo[4.3.3]propellan-8-yl)urea], in data set [1] (1 µM), the “inhibition … σ1” value is reported as 0%. Moreover, in data set [2], the “inhibition … σ2” value worked out at 0%.

Consider `FCC[C@@H]1OC2(CCN(Cc3ccccc3)CC2)c2ccccc21` [compound 1, (S)-fluspidine], for which, in data set [5], the Ki was 2.3 nM and the “selectivity for σ1 against/over the σ2 subtype” value is recorded as 300 fold. In addition, the inhibition constant (Ki) in data set [6] is 897 nM.

For the compound `COc1ccc(CN2CC3CCCC2CN3Cc2ccccc2)cc1` (centres unmarked) [compound 2], in data set [5], the Ki is 0.91 nM and the “selectivity for σ1 against/over the σ2 subtype” value is on record as “more than 40 fold”. In addition, the Ki in data set [6] is 39 nM.

Take `COc1ccc(C)cc1NC(=O)OC1CC2CCCC(C1)N2Cc1ccccc1` (centres unmarked) [compound 3]: the values for the Ki in data set [5] and in data set [6] were 92.5 nM and 3.1 nM, respectively. Also, in data set [6] (σ2 over σ1), the “preference for the σ2 receptor” value is recorded as 30 fold.

For the compound `c1ccc(CNC2CC34CCCCC3(CCC4)C2)cc1` (centres unmarked) [compound 8], the Ki in data set [1] (setting [7]) is 594 nM. The “reduction of σ1 affinity compared to azapropellane 9a” value in data set [1] (compared to 9a) is 35 fold. Besides, the “selectivity for the σ1 receptor over the σ2 receptor” value in data set [1] (σ1 over σ2) is on record as “at least 10 fold”. Testing at 1 µM in data set [2] gave an inhibition of 39%.

For `c1ccc2c(CCNC3CC45CCCCC4(CCC5)C3)c[nH]c2c1` (stereo not drawn) [compound 15, syn- and anti-N-[2-(Indol-3-yl)ethyl]-[4.3.3]propellan-8-amine], the melting point lay in the range of 109 to 111 °C. In data set [1] (Ki (nM) σ1), this compound came in with a Ki of 598 nM. This compound also registered a Ki in data set [2] of 974 nM.

Turning to `NC1CC23CCCCC2(CCC3)C1` (centres unmarked) [compound 16], the inhibition at 1 µM in data set [1] is 5%; in data set [2], 13%.

`CN(C)c1ccc(CNC2CC34CCCCC3(CCC4)C2)cc1` (stereo not drawn) [compound 17, syn- and anti-N-(4-(Dimethylaminobenzyl)-[4.3.3]propellan-8-amine] returned a melting point of 89 to 91 °C. For the same compound, the Ki in data set [1] (setting [7]) was determined as 1200 nM. This compound also returned an inhibition at 1 µM in data set [2] of 1%.

Consider `C1CCC(CNC2CC34CCCCC3(CCC4)C2)CC1` (stereo not drawn) [compound 18, syn- and anti-N-Cyclohexylmethyl[4.3.3]propellan-8-amine], for which the melting point fell in the range of 108 to 111 °C. The compound further came in with an inhibitory constant (Ki) in data set [1] (Ki (nM) σ1) of 34 ± 11 nM. Besides, in data set [2] (read-out: Ki (nM) σ2), the Ki came to 101 nM.

As to `COc1ccc(C)cc1NC(=O)N(Cc1ccccc1)C1CC23CCCCC2(CC(O)C3)C1` (stereo not drawn) [syn,anti-22, 1 -Benzyl-1-{(8-syn,11-anti)-11-hydroxy[4.3.3]propellan-8-yl}-3-(2-methoxy-5-methylphenyl)urea], in data set [1], the “inhibition … σ1” value is reported as 0%. The “inhibition … σ2” value in data set [2] (1 µM) is 8%.

In the case of `COc1ccc(C)cc1NC(=O)N(Cc1ccccc1)C1CC23CCCCC2(CC(O)C3)C1` (stereo not drawn) [syn,syn-22, 1-benzyl-1-{(8-syn,11-syn)-11-hydroxy[4.3.3]propellan-8-yl}-3-(2-methoxy-5-methylphenyl)urea], in data set [1], the “inhibition … σ1” value is reported as 0%. Moreover, the “inhibition … σ2” value in data set [2] (1 µM) is 0%.

`COc1ccc(C)cc1NC(=O)OC1CC23CCCCC2(C1)CN(Cc1ccccc1)CC3` (stereo not drawn) [syn-5]: in data set [3] (test compound concentration of 1 µM, already reported), the “inhibition … σ1” value is given as 12%. In data set [4], the “inhibition … σ2” value is 0%.

In the case of `c1ccc(CNC2CC34CCCCC3(C2)CC2(C4)OCCO2)cc1` (stereo not drawn) [syn-14], the Ki in data set [1] (setting [7]) is 750 nM. Also, the “inhibition … σ2” value in data set [2] (listed as syn- 14, 1 µM) is 7%.

Compound `COc1ccc(C)cc1NC(=O)N(Cc1ccccc1)C1CC23CCCCC2(CC(=O)C3)C1` (stereo not drawn) [syn-21, 1 -Benzyl-3-(2-methoxy-5-methylphenyl)-1-(syn-11-oxo-[4.3.3]propellan-8-yl)urea] had a melting point of 168 to 170 °C. In addition, the “inhibition … σ1” value in data set [1] (1 µM) is reported as 13%. At 1 µM the inhibition in data set [2] was 14%.

With `O=C1CC23CCCCC2(C1)CC(NC(=O)Nc1ccc(F)c(F)c1)C3` (stereo not drawn) [syn-25, 1-(3,4-. Difluorophenyl)-3-(8-syn-11-oxo[4.3.3]propellan-8-yl)urea], in data set [1] (1 µM), the “inhibition … σ1” value is 10%. In data set [2], this compound yielded an inhibition at 1 µM of 0%.
